Assay results taken from ChEMBL document CHEMBL1156398, “Four new bioactive pyrrole-derived alkaloids from the marine sponge Axinella brevistyla” (J Nat Prod, 2001).
≈ marks a conversion by molar mass, not a printed value. Calls of active or inactive are those of the source. The calls are words filed in the database; no cut-off is given here.

Tests used:
L1210 = assay: Cytotoxicity against mouse L1210 cells; assay type: functional, cell-based
Saccharomyces cerevisiae [1] = assay: Antifungal activity against Saccharomyces cerevisiae YAT2285 erg6 mutant at <1.0 ug/disk by paper disk method; assay type: functional, organism-based
Saccharomyces cerevisiae [2] = assay: Antifungal activity against Saccharomyces cerevisiae YAT2285 erg6 mutant at 30 ug/disk by paper disk method; assay type: functional, organism-based
Saccharomyces cerevisiae [3] = assay: Antifungal activity against Saccharomyces cerevisiae YAT2285 erg6 mutant at 100 ug/disk by paper disk method; assay type: functional, organism-based

SMILES	IC50 (L1210) [µg/mL]	Activity (Saccharomyces cerevisiae [1])	Activity (Saccharomyces cerevisiae [2])	Activity (Saccharomyces cerevisiae [3])
O=C1NC(=O)C(Br)=C1Br	0.66 (≈ 2.59 µM)	Active	–	–
NC1=NC2c3c([nH]c(Br)c3Br)C(=O)N3C[C@H](Cl)[C@H](O)C23N1 (some centres not stated)	2.5 (≈ 5.69 µM)	–	Active	–
C[N+]1=CN[C@H](C(=O)[O-])C[C@@]1(C)COC(=O)c1cc(Br)c[nH]1	–	–	–	Active
O=C1C=C(Br)C(=O)N1	1.1 (≈ 6.25 µM)	Active	–	–
